Measurements published in EP2158208B1, “PROCESS FOR PREPARING AN A2A-ADENOSINE RECEPTOR AGONIST AND ITS POLYMORPHS” (Gilead Sciences, Inc., priority 2007, dated 2008).

Key:
A2A-adenosine receptor = A2A-adenosine receptor (Homo sapiens, UniProt P29274); conditions: disclosed in U.S. Patent No. 6,403,567; cited from earlier work
[1] = in humans; cited from earlier work
[2] = stability of polymorphs under relative humidity stress / atmospheric moisture; assay type: physicochemical; conditions: for stability under relative humidity stress conditions: up to melting point, monohydrate
Procedure: Moisture sorption/desorption data were collected on a VTI SGA-100 Vapor Sorption Analyzer. Sorption and desorption data were collected over a range of 5% to 95% relative humidity […] at 10% RH intervals under a nitrogen purge. Sodium chloride (NaCl) and polyvinylpyrrolidone (PVP) were used as the calibration standards. Equilibrium criteria used for analysis were less than 0.0100% weight change in 5 minutes, with a maximum equilibration time of 180 minutes if the weight criterion was not met. The plotted data have not been corrected for the initial moisture content.

[3] = stability of polymorphs with temperature (thermal analyses); assay type: physicochemical; conditions: for relative stability among the polymorphs: at ambient temperatures, monohydrate
Procedure: Thermogravimetric (TG) analyses were carried out on a TA Instruments 2050 or 2950 thermogravimetric analyzer. The calibration standards were nickel and Alumel™. Samples were placed in an aluminum sample pan, inserted into the TG furnace, and accurately weighed. The samples were heated in nitrogen at a rate of 10°C/min to either 300 or 350° C. Unless stated otherwise, samples weights were equilibrated at 25°C in the TGA furnace prior to analysis.
Differential scanning calorimetry (DSC) analyses were carried out on a TA Instruments differential scanning calorimeter 2920. Accurately weighed samples were placed in either crimped pans or hermetically sealed pans that contained a pinhole to allow for pressure release. Each sample was heated under nitrogen at a rate of 10°C/min to either 300 or 350°C. Indium metal was used as the calibration standard. Temperatures were reported at the transition maxima.

A2A-adenosine receptor, sequence (P29274 whole entry): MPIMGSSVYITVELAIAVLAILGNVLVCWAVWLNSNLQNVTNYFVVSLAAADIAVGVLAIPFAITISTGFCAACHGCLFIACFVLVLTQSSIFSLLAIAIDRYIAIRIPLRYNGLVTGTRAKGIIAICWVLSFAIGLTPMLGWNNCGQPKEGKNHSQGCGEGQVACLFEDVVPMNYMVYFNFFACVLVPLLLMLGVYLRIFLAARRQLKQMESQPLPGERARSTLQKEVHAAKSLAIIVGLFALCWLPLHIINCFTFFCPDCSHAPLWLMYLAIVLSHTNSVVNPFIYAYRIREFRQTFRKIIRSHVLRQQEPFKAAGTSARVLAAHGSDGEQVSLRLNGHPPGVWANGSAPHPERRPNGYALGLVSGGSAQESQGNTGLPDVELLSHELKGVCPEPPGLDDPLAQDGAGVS

SMILES: CNC(=O)c1cnn(-c2nc(N)c3ncn([C@@H]4O[C@H](CO)[C@@H](O)[C@H]4O)c3n2)c1 [(1-{9-[(4S,2R,3R,5R)-3,4-dihydroxy-5-(hydroxymethyl)oxolan-2-yl]-6-aminopurin-2-yl}pyrazol-4-yl)-N-methylcarboxamide]
- selectivity as A2A-adenosine receptor agonist (A2A-adenosine receptor): highly selective

SMILES: Nc1ncnc2c1ncn2[C@@H]1O[C@H](CO)[C@@H](O)[C@H]1O [Adenosine]
- half life [1]: less than 10 seconds

SMILES: CNC(=O)c1cnn(-c2nc(N)c3ncn([C@@H]4O[C@H](CO)[C@@H](O)[C@H]4O)c3n2)c1 [Amorphous Material, (1-{9-[(4S,2R,3R,5R)-3,4-dihydroxy-5-(hydroxymethyl)oxolan-2-yl]-6-aminopurin-2-yl}pyrazol-4-yl)-N-methylcarboxamide]
- stability in the presence of atmospheric moisture ([2]; atmospheric moisture): unstable in the presence of atmospheric moisture

SMILES: CNC(=O)c1cnn(-c2nc(N)c3ncn([C@@H]4O[C@H](CO)[C@@H](O)[C@H]4O)c3n2)c1.O [Form A, (1-{9-[(4S,2R,3R,5R)-3,4-dihydroxy-5-(hydroxymethyl)oxolan-2-yl]-6-aminopurin-2-yl}pyrazol-4-yl)-N-methylcarboxamide monohydrate]
- stability under relative humidity stress conditions ([2]; listed as monohydrate): stable under relative humidity stress conditions, up to its melting point
- stability under relative humidity stress conditions [2]: stable under relative humidity stress conditions up to its melting point
- relative stability among the polymorphs ([3]; listed as monohydrate): most stable
- relative stability among the polymorphs [3]: most stable of the various polymorphs at ambient temperatures

SMILES: CNC(=O)c1cnn(-c2nc(N)c3ncn([C@@H]4O[C@H](CO)[C@@H](O)[C@H]4O)c3n2)c1 [Form C, (1-{9-[(4S,2R,3R,5R)-3,4-dihydroxy-5-(hydroxymethyl)oxolan-2-yl]-6-aminopurin-2-yl}pyrazol-4-yl)-N-methylcarboxamide]
- stability at elevated temperatures ([3]; elevated temperatures): desolvates to an unstable form
